Consider 1 compound from US20250170104A1, “INHIBITORS OF PSEUDOMONAS AERUGINOSA VIRULENCE FACTOR Lasß” (priority 2022, published 2025).

The experiment has as its target HDAC8 (Homo sapiens (Human), UniProt Q9BY41). The experiment is described as follows: HDAC inhibition. The following applies: read-out: Selectivity IC50 HDAC8. Format: biochemical. As for the experimental part:
HDAC3 and HDAC8 Inhibitor Screening Assay kits were purchased from Sigma-Aldrich. The assay was performed according to the guidelines of the manufacturer using trichostatin as a positive control. Fluorescence signals were measured in a CLARIOstar plate reader (BMG Labtech).

Sequence of HDAC8 (Q9BY41 whole entry): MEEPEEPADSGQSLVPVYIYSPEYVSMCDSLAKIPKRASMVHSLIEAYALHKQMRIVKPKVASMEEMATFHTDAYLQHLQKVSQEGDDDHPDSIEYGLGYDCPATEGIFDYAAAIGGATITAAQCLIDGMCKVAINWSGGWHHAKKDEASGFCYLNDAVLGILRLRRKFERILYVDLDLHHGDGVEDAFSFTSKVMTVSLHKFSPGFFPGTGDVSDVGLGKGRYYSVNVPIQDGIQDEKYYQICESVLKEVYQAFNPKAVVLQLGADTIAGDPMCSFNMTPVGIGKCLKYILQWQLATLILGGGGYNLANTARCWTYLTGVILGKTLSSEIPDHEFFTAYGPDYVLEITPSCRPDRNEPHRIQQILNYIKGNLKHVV

For `CC(C)CC(C(=O)NO)C(=O)Nc1ccc(Cn2cc(CNS(=O)(=O)CC(C)C)nn2)cc1` (stereo not shown) [Compound 169, 2-(Hydroxycarbamoyl)-N-[4-[[4-[(isobutylsulfonylamino)methyl]triazol-1-yl]methyl]phenyl]-4-methyl-pentanamide], the IC50 (usually the concentration at which inhibition is half-maximal) is above 100 µM.
